“Also recorded” adds a separate entry of the source.
How the values were obtained:
B16F10 melanoma cells = experiment: 3D collagen culture viability dose response, B16F10; assay type: cell-based, murine; conditions: B16F10, 3D collagen matrix
Description: Y-axis is the viability ratio where 1=100% viability, and 0=0% viability. The lines are non-linear fits, which are used to show the best fit curves. Those same fits are also used to calculate IC50 values. RMIC (where applicable) and DMSO are indicated as separate dots.
FIG. 1 panels A-F show the effect of SU11652 on BRAF V600E mutant (A375, M481) and BRAF-WT (M405, M498) as well as B16BL6 and B16F10 melanoma cells. The indicated cell line was cultured in collagen matrix to create physiologically relevant 3D culture conditions. The drug treatment was applied for 72 h and the response quantified. Three types of signal were measured using three different markers: apoptosis (CellEvent Caspase 3/7), permeabilized cell nuclei (ethidium homodimer), and all nuclei (Hoechst 33342) using an epifliorescence microscope. Each well of a 96-well plate was imaged at three different locations, with a z-step size of 2 μm for 251 steps to cover the entire height at that location. […] To resolve overlaps, we used the following precedence: permeabilization indicates cell death thus overwrites both other channels; in the absence of permeabilization, apoptosis marker overrides the Hoechst nuclear stain. These absolute pixel counts signal were converted to a relative viability signal by calculating the ratio of ethidium homodimer plus apoptosis signal to the total nuclear stain signal. […]

breast cancer cell lines = experiment: Viability dose response on breast cancer cell lines; assay type: cell-based; conditions: three cell lines, methodology of FIG. 1
Source text: FIG. 2 panels C-E show the effect of SU11652 on […] and […] measured and plotted using the same methodology as FIG. 1.

murine splenocytes = experiment: Splenocyte viability by trypan blue staining; assay type: cell-based; conditions: anti-CD3, anti-CD28 stimulated, 2 and 3 days, all doses
Source text: Murine splenocytes were stimulated with anti-CD3 and anti-CD28 in addition to the indicated SU11652 doses for 2 and 3 days. At indicated timepoints, splenocytes were counted and cell death was quantified by trypan blue staining using automated cell counter. Error bars represent standard error of means for N=3 mice per timepoint.
Murine splenocytes were stimulated with anti-CD3, anti-CD28, and murine recombinant IL-2 in addition to the indicated SU11652 doses for 2 and 3 days (FIG. 4). At the indicated timepoints, splenocytes were counted and cell death was quantified by trypan blue staining using an automated cell counter. Error bars represent the standard error of the mean (SEM) for N=3 mice per timepoint. VC=vehicle control.

[1] = system: CD8+ and CD4+ lymphocytes (murine splenocytes); experiment: Intracellular cytokine production by flow cytometry; assay type: cell-based; conditions: PMA/ionomycin/monensin six hours, 72 h post-stimulation
Description: Murine splenocytes were stimulated with anti-CD3, anti-CD28 and murine recombinant IL-2 in addition to the indicated SU11652 doses for 3 days. Prior to stimulation, cells were stained with carboxyfluorescein succinimidyl ester (CFSE) to track cell division. […] Additionally, cells were treated with phorbol 12-myristate 13-acetate (PMA)/ionomycin/monensin for six hours to detect the intracellular cytokines 72 h post-stimulation. […] CFSE dilution and the intracellular cytokines were detected by flow cytometry. Error bars represent SEM for n=3 mice.
Murine splenocytes were stimulated with anti-CD3, anti-CD28, and murine recombinant IL-2 in addition to the indicated SU11652 doses for 3 days. Prior to stimulation, cells were stained with CFSE to track cell division. […] Additionally, cells were treated with PMA/lonomycin/Monensin for six hours to detect intracellular cytokines. […] CFSE dilution and intracellular cytokines were detected by flow cytometry. Error bars represent SEM for n=3 mice.

A375 melanoma cells = system: A375 melanoma cells
Description: (§1) A375 cells were subcutaneously implanted at 3 million cells per mice with matrigel in the lower back of the mice. Once the tumors were palpable (150-200 mm^3), the mice were randomized and drug treatment was initiated. The mice were treated with vehicle control, 20 mg/kg sunitinib, 20 mg/kg SU11652, 50 mg/kg dabrafenib+0.5 mg/kg trametinib. The mice were treated with drugs daily for the duration of the experiment. Tumor sizes were assessed twice weekly using caliper measurement, and tumor volume was calculated using the formula (length×width^2×π)/6. Mice were euthanized when the tumor volume exceeded 1250 mm^3 or when necessary for animal welfare. The drug was dissolved in 0.5% w/v carboxymethylcellulose sodium, 1.8% w/v NaCl, 0.4% w/v Tween-80, 0.9% w/v benzyl alcohol. All mice were sacrificed before tumor weight exceeded 10% of body weight.
(§2) 6-8 week old Nod-Scid IL2Rγ KO mice (NSG) were implanted at a single subcutaneous site with 3×10^6 A375 or M405 melanoma cells (FIGS. 6 and 9, respectively) in matrigel (0.2 ml). When tumors reached approximately 150-200 mm^3 (day 11 post tumor cell implantation for A375 cells; day 21 post tumor cell implantation for […]), therapy was initiated. For A375 melanoma cells, treatment was with 20 mg/kg SU11652, 20 mg/kg Sunitinib, 50 mg/kg Debrafenib/0.5 mg/kg Trametinib or vehicle only (0.5% CMC/1.8% NaCl/0.4% Tween80/0.9% Benzyl Alcohol) at 0.2 ml/mouse PO qd. For M405 cells, treatment was with 20 mg/kg SU11652, 20 mg/kg Sunitinib or vehicle only (0.5% CMC/1.8% NaCl/0.4% Tween80/0.9% Benzyl Alcohol) at 0.2 ml/mouse PO qd. Compounds were administered as homogenous slurries after sonication (and heating at 60° C. for debrafenib/trametinib). Mice were weighed daily and tumors were measured with calipers twice weekly. Tumor volume was calculated as (L×W^2×pi)/6. When tumor volume reached >1250 mm^3 or if mice appeared moribund, they were euthanized and tumors immediately collected and snap frozen. […] All mice not previously euthanized were sacrificed on day 43 (A375 cells) or day 59 (M405 cells).
(§3) Tumor growth was evaluated as described in Evans (Evans et al., Cancer Immunol Res. 2015 June; 3(6):689-701). Time to endpoint (TTE) was determined by extrapolating the day on which tumors reached 1250 mm^3 from log-transformed tumor growth data sets. […] The median TTE was calculated for the group and tumor growth delay (TGD) defined as the increase in the median TTE in a treatment group compared to the control group, using the formula: % TGD=((T−C)/C)×[…]. […] The average % TGI was calculated for treatment days when all animals were still present. Mean tumor volumes±SEM were plotted and the difference between treated and control evaluated by Student's unpaired t-test (GraphPad QuickCalcs).

[2] = system: BRAF WT M405 melanoma tumor cell model
Description: as §1, with “Cells” for “A375 cells”, “sunitinib and” for “sunitinib,”, “SU11652.” for “SU11652, 50 mg/kg dabrafenib+0.5 mg/kg trametinib.”
as §2, §3

A375 cells = experiment: 2D dose response of RMIC-resistant BRAF V600E melanoma cells; assay type: cell-based; conditions: 2D culture
Source text: Two new cell lines were used to shed insight into the relationship between RAC1 signaling and SU11652 activity. The first cell line used was IGR1 which is RAC1^P29S. […] A375 is a classical melanoma cell line that is RAC1^WT and BRAF^V600E, which we had already tested SU11652. The second new cell line was a knock-in RAC1P29S variant of A375 which allows direct comparisons between RAC1^WT and RAC1P29s melanoma.

[3] = A375, 20 mg/kg PO daily, compared with sunitinib
[4] = M405, 20 mg/kg PO daily, compared with sunitinib

In the case of `CCN(CC)CCNC(=O)c1c(C)[nH]c(/C=C2\C(=O)Nc3ccc(Cl)cc32)c1C` [SU11652, 5-[(Z)-(5-chloro-2-oxo-1,2-dihydro-3H-indol-3-ylidene)methyl]-N-[2-(diethylamino)ethyl]-2,4-dimethyl-1H-pyrrole-3-carboxamide], the “cytotoxic effect (viability ratio dose response)” value (B16F10 melanoma cells) is reported as “broadly cytotoxic to melanoma cells”, the “efficacy on breast cancer cell lines (viability)” value (breast cancer cell lines) is reported as “lack of efficacy” and the “splenocyte viability / cell death” value (murine splenocytes) is reported as “splenocytes remained viable; also recorded: does not kill normal immune cells”. For the same compound, the “TNFα and IFNγ production” value [1] was “retained their TNFα and IFNγ production abilities”, the “average tumor growth inhibition” value (A375 melanoma cells; [3]) was “better average tumor growth inhibition” and the tumor growth delay (A375 melanoma cells; [3]) was “greater tumor growth delay”. The time to endpoint (A375 melanoma cells; A375, 20 mg/kg PO daily, endpoint 1250 mm^3, compared with sunitinib) was “longer time to endpoint”, the “toxicity leading to weight loss” value (A375 melanoma cells; mouse, in vivo) was “did not incur a major toxicity that would lead to weight loss” and the “average tumor growth inhibition” value [2, 4] was “better average tumor growth inhibition”. For the same compound, the tumor growth delay [2, 4] was “greater tumor growth delay”, the time to endpoint ([2]; M405, 20 mg/kg PO daily, endpoint 1250 mm^3, compared with sunitinib) was “longer time to endpoint” and the “toxicity leading to weight loss” value ([2]; mouse, in vivo) was “did not incur a major toxicity that would lead to weight loss”. For the same compound, the “cytotoxic activity under 2D conditions” value (A375 cells) was “does not show cytotoxic activity; also recorded: does not match that observed in 3D and in vivo”.
